PubChem BioAssay AID2060337 (Molecular Pharmacology Branch, DTP, NCI, 2025)
“And” between values parts separate entries of the source, which are not always exact repeats. Equal entries are not always repeated.

Tested on: 832693-133-R-J1-PDC multi-cell spheroids, viability
Assay: Anticancer human tumor 832693-133-R-J1-PDC patient-derived head and neck squamous carcinoma cell line growth inhibition [IpAb]
Conditions: for viability, T/C: stronger effect = lower value
Text: Combinatorial screen of targeted agents with ipatasertib and abemaciclib in multi-cell type tumor spheroids
A high-throughput screen of multi-cell type tumor spheroids was designed to identify active combinations of targeted small molecules and ipatasertib or abemaciclib. Complex spheroids include a stromal component modeled by human endothelial cells (HUVEC) and fibroblasts modeled by human mesenchymal stem cells (MSCs). The concentration ranges selected for each drug and investigational agent were based upon clinically achievable concentrations if the clinical Cmax of the agent was known.
Compounds. The drugs and investigational agents: ipatasertib (NSC767898), abemaciclib(NSC768073), selumetinib (NSC741078), trametinib (758246), adavosertib (NSC754352), everolimus (NSC733504), sapanisertib (NSC764658), vemurafenib (NSC761431), venetoclax (NSC766270), copanlisib (NSC809693), apelisib (NSC765974), palbociblib (NSC758247), vemurafenib (NSC761431), dabrafenib (NSC764134), ravoxertinib (NSC781343), BMS-387032 (NSC767048), sotorasib (NSC818433), talazoparib (NSC767125) and afursertib (NSC778305), were obtained from the National Cancer Institute (NCI) Developmental Therapeutics Program Chemical Repository. The FDA-approved anticancer drug set is available from the NCI Developmental Therapeutics Program. […] The stock solutions were prepared in dimethyl sulfoxide (DMSO, Sigma-Aldrich, St. Louis, MO, cat. D2650) at 800-fold the tested concentration and stored at -70 degrees C prior to their use. All drugs and investigational agents were tested over a range starting from a high concentration at or near the clinical Cmax and decreasing in half-log increments. If the clinical Cmax for an agent had not been determined, the highest concentration tested was 10 microM.
NCI60 Cell Culture. NCI60 cell lines were obtained from the NCI Developmental Therapeutics Program Tumor Repository. For each lot of cells, the Repository performed Applied Biosystems AmpFLSTR Identifiler testing with PCR amplification to confirm consistency with the published Identifier STR profile for each cell line. Cells were kept in continuous culture for no more than 20 passages. The optimal seeding densities for each of the cell lines at each time point assessed were determined prior to performing the concentration response studies. Briefly, the NCI60 human tumor lines were grown as monolayers in RPMI 1640 medium supplemented with 10% FBS and 2 mmol/L L-glutamine.
An additional 9 lines were from the NCI60 cell line panel including MDA-MB-231 breast carcinoma, MDA-MB-468 breast carcinoma, MCF7 breast carcinoma, Hs578T breast carcinoma, MALME-3M melanoma, SK-MEL-2 melanoma, SK-OV-3 ovarian carcinoma, DU-145 prostate carcinoma, PC-3 prostate carcinoma, all cell lines along with major genetic alterations are listed on Table 2. Pooled donor human umbilical vein endothelial cells (HUVEC, Lonza, cat. CC-2519) and human mesenchymal stem cells (hMSC, Lonza, cat. PT-2501) were purchased from Lonza (Walkersville, MD).
PDMR cell lines were grown in complete medium (DC medium): Dulbecco's modified Eagle's medium (DMEM)/F12 supplemented with 5% fetal bovine serum (FBS), 2 mM L-glutamine, 100 U/mL penicillin and 100 µg/ml streptomycin, 0.4 µg/ml hydrocortisone, 10 ng/ml epidermal growth factor (EGF) recombinant human protein, 24 µg/mL adenine, and 0.1 mg/mL primocin. During culture from frozen stock vials, PDMR cells were cultured in the same medium containing 10 µM Y-27632 (see Table 3). The PDCs were cultured in complete DMEM/F12 media without 10 microM Y-27632 dihydrochloride for at least two passages prior to the screen. The pooled donor HUVEC and hMSC were cultured in endothelial cell growth medium 2 (PromoCell, Heidelberg, Germany, cat. C-22011) and mesenchymal stem cell growth medium 2 (PromoCell, cat. C-28009), respectively. For all experiments, HUVEC and hMSC were used at passages </=5.
[…]

[1] = curve of first compound, second compound 0.01 µM
[2] = curve of first compound, second compound 0.0316 µM
[3] = curve of first compound, second compound 0.1 µM
[4] = curve of first compound, second compound 0.316 µM
[5] = curve of first compound, second compound 1 µM
[6] = second compound 0.01 µM, first compound 0.00949 µM
[7] = second compound 0.01 µM, first compound 0.03 µM
[8] = second compound 0.01 µM, first compound 0.0949 µM
[9] = second compound 0.01 µM, first compound 0.3 µM
[10] = second compound 0.0316 µM, first compound 0.00949 µM
[11] = second compound 0.0316 µM, first compound 0.03 µM
[12] = second compound 0.0316 µM, first compound 0.0949 µM
[13] = second compound 0.0316 µM, first compound 0.3 µM
[14] = second compound 0.1 µM, first compound 0.00949 µM
[15] = second compound 0.1 µM, first compound 0.03 µM
[16] = second compound 0.1 µM, first compound 0.0949 µM
[17] = second compound 0.1 µM, first compound 0.3 µM
[18] = second compound 0.316 µM, first compound 0.00949 µM
[19] = second compound 0.316 µM, first compound 0.03 µM
[20] = second compound 0.316 µM, first compound 0.0949 µM
[21] = second compound 0.316 µM, first compound 0.3 µM
[22] = second compound 1 µM, first compound 0.00949 µM
[23] = second compound 1 µM, first compound 0.03 µM
[24] = second compound 1 µM, first compound 0.0949 µM
[25] = second compound 1 µM, first compound 0.3 µM
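Also: spheroids exposed to the drugs for one week before the viability readout.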
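For viability, T/C in this document: 100% = DMSO vehicle control wells.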

Compound: Cn1cnc2c(F)c(Nc3ccc(Br)cc3Cl)c(C(=O)NOCCO)cc21 + CCN1CCN(Cc2ccc(Nc3ncc(F)c(-c4cc(F)c5nc(C)n(C(C)C)c5c4)n3)nc2)CC1
- IC50 [1]: 118 nM
- IC50 [2]: 49 nM
- IC50 [3]: < 9.49 nM
- IC50 [4]: 15.3 nM
- IC50 [5]: 170 nM
- viability, T/C [6]: 62.4%
- viability, T/C [7]: 58.7%
- viability, T/C [8]: 50.4%
- viability, T/C [9]: 41.3%
- viability, T/C (second compound 0.01 µM, first compound 0.949 µM): 34%
- viability, T/C (second compound 0.01 µM, first compound 3 µM): 14.1%
- viability, T/C [10]: 54.3%
- viability, T/C [11]: 57.5%
- viability, T/C [12]: 44.5%
- viability, T/C [13]: 35.5%
- viability, T/C (second compound 0.0316 µM, first compound 0.949 µM): 29.1%
- viability, T/C (second compound 0.0316 µM, first compound 3 µM): 13.4%
- viability, T/C [14]: 47.2%
- viability, T/C [15]: 47.4%
- viability, T/C [16]: 36.4%
- viability, T/C [17]: 32.1%
- viability, T/C (second compound 0.1 µM, first compound 0.949 µM): 24.4%
- viability, T/C (second compound 0.1 µM, first compound 3 µM): 12.6%
- viability, T/C [18]: 54.7%
- viability, T/C [19]: 43.9%
- viability, T/C [20]: 36.1%
- viability, T/C [21]: 34.8%
- viability, T/C (second compound 0.316 µM, first compound 0.949 µM): 25.3%
- viability, T/C (second compound 0.316 µM, first compound 3 µM): 15.1%
- viability, T/C [22]: 64.6%
- viability, T/C [23]: 58.2%
- viability, T/C [24]: 51.5%
- viability, T/C [25]: 47.9%
- viability, T/C (second compound 1 µM, first compound 0.949 µM): 40.7%
- viability, T/C (second compound 1 µM, first compound 3 µM): 28.2%

Compound: CC(=O)c1c(C)c2cnc(Nc3ccc(N4CCNCC4)cn3)nc2n(C2CCCC2)c1=O + CCN1CCN(Cc2ccc(Nc3ncc(F)c(-c4cc(F)c5nc(C)n(C(C)C)c5c4)n3)nc2)CC1
- IC50 [1]: > 300 nM
- IC50 [2]: > 300 nM
- IC50 [3]: > 300 nM
- IC50 [4]: > 300 nM
- IC50 [5]: > 300 nM
- viability, T/C (second compound 0.01 µM, first compound 0.000949 µM): 101%
- viability, T/C (second compound 0.01 µM, first compound 0.003 µM): 83.8%
- viability, T/C [6]: 75.6%
- viability, T/C [7]: 71.8%
- viability, T/C [8]: 58.4%
- viability, T/C [9]: 60%
- viability, T/C (second compound 0.0316 µM, first compound 0.000949 µM): 80.1%
- viability, T/C (second compound 0.0316 µM, first compound 0.003 µM): 83.4%
- viability, T/C [10]: 71.1%
- viability, T/C [11]: 58.4%
- viability, T/C [12]: 56.7%
- viability, T/C [13]: 54.1%
- viability, T/C (second compound 0.1 µM, first compound 0.000949 µM): 57.1%
- viability, T/C (second compound 0.1 µM, first compound 0.003 µM): 62.2%
- viability, T/C [14]: 61.4%
- viability, T/C [15]: 52.4%
- viability, T/C [16]: 54.3%
- viability, T/C [17]: 56%
- viability, T/C (second compound 0.316 µM, first compound 0.000949 µM): 54%
- viability, T/C (second compound 0.316 µM, first compound 0.003 µM): 53.3%
- viability, T/C [18]: 55.3%
- viability, T/C [19]: 61.4%
- viability, T/C [20]: 55.2%
- viability, T/C [21]: 60.4%
- viability, T/C (second compound 1 µM, first compound 0.000949 µM): 67.8%
- viability, T/C (second compound 1 µM, first compound 0.003 µM): 61%
- viability, T/C [22]: 68.3%
- viability, T/C [23]: 64.8%
- viability, T/C [24]: 65.6%
- viability, T/C [25]: 57.2%

Compound: CC(C)NCC(C(=O)N1CCN(c2ncnc3c2C(C)CC3O)CC1)c1ccc(Cl)cc1 (stereo unspecified)
- viability, T/C (compound 0.1 µM): 89.5% [middle of 13 runs]
- viability, T/C (compound 0.316 µM): 78.2% [middle of 12 runs]
- viability, T/C (compound 1 µM): 58% [middle of 13 runs]
- viability, T/C (compound 3.16 µM): 55.3% [middle of 13 runs]
- viability, T/C (compound 10 µM): 58.4% [middle of 13 runs]
- IC50 (compound alone, run of 05/18/2021): > 10000 nM and 6660 nM and 1870 nM

Compound: COc1c(OCCCN2CCOCC2)ccc2c3n(c(=NC(=O)c4cnc(N)nc4)nc12)CCN3 + CC(C)NCC(C(=O)N1CCN(c2ncnc3c2C(C)CC3O)CC1)c1ccc(Cl)cc1
- IC50 [3]: 15.4 nM
- IC50 [4]: 5.27 nM
- IC50 [5]: < 3.16 nM
- IC50 (curve of first compound, second compound 3.16 µM): < 3.16 nM
- IC50 (curve of first compound, second compound 10 µM): < 3.16 nM
- viability, T/C (second compound 0.1 µM, first compound 0.00316 µM): 83.1%
- viability, T/C (second compound 0.1 µM, first compound 0.01 µM): 63.4%
- viability, T/C (second compound 0.1 µM, first compound 0.0316 µM): 27.4%
- viability, T/C (second compound 0.1 µM, first compound 0.1 µM): 7.23%
- viability, T/C (second compound 0.1 µM, first compound 0.316 µM): 4.92%
- viability, T/C (second compound 0.1 µM, first compound 1 µM): 4.02%
- viability, T/C (second compound 0.316 µM, first compound 0.00316 µM): 59.6%
- viability, T/C (second compound 0.316 µM, first compound 0.01 µM): 37.7%
- viability, T/C (second compound 0.316 µM, first compound 0.0316 µM): 19.2%
- viability, T/C (second compound 0.316 µM, first compound 0.1 µM): 7.29%
- viability, T/C (second compound 0.316 µM, first compound 0.316 µM): 3.93%
- viability, T/C (second compound 0.316 µM, first compound 1 µM): 3.87%
- viability, T/C (second compound 1 µM, first compound 0.00316 µM): 43.2%
- viability, T/C (second compound 1 µM, first compound 0.01 µM): 20.6%
- viability, T/C (second compound 1 µM, first compound 0.0316 µM): 12.7%
- viability, T/C (second compound 1 µM, first compound 0.1 µM): 6.94%
- viability, T/C (second compound 1 µM, first compound 0.316 µM): 4.52%
- viability, T/C (second compound 1 µM, first compound 1 µM): 3.27%
- viability, T/C (second compound 3.16 µM, first compound 0.00316 µM): 30.5%
- viability, T/C (second compound 3.16 µM, first compound 0.01 µM): 18.4%
- viability, T/C (second compound 3.16 µM, first compound 0.0316 µM): 11.2%
- viability, T/C (second compound 3.16 µM, first compound 0.1 µM): 7.39%
- viability, T/C (second compound 3.16 µM, first compound 0.316 µM): 5.57%
- viability, T/C (second compound 3.16 µM, first compound 1 µM): 4.86%
- viability, T/C (second compound 10 µM, first compound 0.00316 µM): 32.8%
- viability, T/C (second compound 10 µM, first compound 0.01 µM): 22.8%
- viability, T/C (second compound 10 µM, first compound 0.0316 µM): 14.2%
- viability, T/C (second compound 10 µM, first compound 0.1 µM): 7.94%
- viability, T/C (second compound 10 µM, first compound 0.316 µM): 5.9%
- viability, T/C (second compound 10 µM, first compound 1 µM): 5.91%
